# Reference: PMC3433420 (PLoS ONE, 2012)
# Residues, ends and D or L forms follow the SMILES beside them.
# Key:
# [1] = molecular target: PLCG2-NC tandem SH2 domains (Homo sapiens, UniProt P16885); assay: FP saturation binding assay
# VAV2 SH2 domain = VAV2 SH2 domain (Homo sapiens, UniProt P52735); assay: FP saturation binding assay
# SH2 and PTB domains [2] = molecular target: T1, SH2 and PTB domains (Homo sapiens, UniProt Q13322); assay: In-house protein microarrays (with or without 5 mM DTT), protein named per line; type: binding; conditions: protein GRB10; PM assay replicate # 39307; array fabrication # 39286
# T1 construct: thioredoxin; made in house; host or cells: BL21(DE3)pLysS E. coli
# Outline: (§1)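 KD values come from rhodamine fluorescence of duplicate spots after subtraction of a thioredoxin control. Domains were printed at ~40 µM on aldehyde slides, blocked 1 h at room temperature in pH 7.8 HEPES/KCl buffer with 5 mM DTT and 1% BSA, then peptide-probed.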
# SH2 and PTB domains [3] = molecular target: T2, SH2 and PTB domains (Homo sapiens, UniProt Q8IZW8); assay: as above; type: binding; conditions: protein TNS4; PM assay replicate # 39307; array fabrication # 39286
# T2 construct: thioredoxin; made in house; host or cells: BL21(DE3)pLysS E. coli
# Outline: as §1
# SH2 and PTB domains [4] = molecular target: T3, SH2 and PTB domains (Homo sapiens, UniProt P46108); assay: as above; type: binding; conditions: protein CRK; PM assay replicate # 39307; array fabrication # 39286
# T3 construct: thioredoxin; made in house; host or cells: BL21(DE3)pLysS E. coli
# Outline: as §1
# SH2 and PTB domains [5] = molecular target: T4, SH2 and PTB domains (Homo sapiens, UniProt O75815); assay: as above; type: binding; conditions: protein BCAR3; PM assay replicate # 39337; array fabrication # 39329
# T4 construct: thioredoxin; made in house; host or cells: BL21(DE3)pLysS E. coli
# Outline: as §1
# SH2 and PTB domains [6] = molecular target: T5, SH2 and PTB domains (Homo sapiens, UniProt P06239); assay: as above; type: binding; conditions: protein LCK
# T5 construct: thioredoxin; made in house; host or cells: BL21(DE3)pLysS E. coli
# Outline: as §1
# SH2 and PTB domains [7] = molecular target: T6, SH2 and PTB domains (Homo sapiens, UniProt P15498); assay: as above; type: binding; conditions: protein VAV1, array fabrication # 39329
# T6 construct: thioredoxin; made in house; host or cells: BL21(DE3)pLysS E. coli
# Outline: as §1
# SH2 and PTB domains [8] = molecular target: T7, SH2 and PTB domains (Homo sapiens, UniProt Q8N5H7); assay: as above; type: binding; conditions: protein SH2D3C, array fabrication # 39329
# T7 construct: thioredoxin; made in house; host or cells: BL21(DE3)pLysS E. coli
# Outline: as §1
# SH2D1B SH2 domain = molecular target: T8, SH2D1B SH2 domain (Homo sapiens, UniProt O14796); assay: FP saturation binding assay
# T8 sequence (O14796 5-101 limits assumed): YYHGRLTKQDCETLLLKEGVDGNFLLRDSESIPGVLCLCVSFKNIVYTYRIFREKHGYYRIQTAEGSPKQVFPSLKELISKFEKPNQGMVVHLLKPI
# SH2 and PTB domains [9] = molecular target: T9, SH2 and PTB domains (Homo sapiens, UniProt O14796); assay: In-house protein microarrays (with or without 5 mM DTT), protein named per line; type: binding; conditions: protein SH2D1B
# T9 construct: thioredoxin; made in house; host or cells: BL21(DE3)pLysS E. coli
# T9 sequence (O14796 1-132): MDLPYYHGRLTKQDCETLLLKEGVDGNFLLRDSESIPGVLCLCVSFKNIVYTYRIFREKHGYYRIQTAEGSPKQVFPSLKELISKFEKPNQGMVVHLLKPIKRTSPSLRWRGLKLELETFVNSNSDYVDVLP
# Outline: as §1
# STAP1 SH2 domain = STAP1 SH2 domain (Homo sapiens, UniProt Q9ULZ2); assay: FP saturation binding assay
# [10] = PM assay replicate # 39336, array fabrication # 39329
# [11] = PM assay replicate # 39603, array fabrication # 39392
# T5 sequence (P06239 whole entry, the tested form may be a part): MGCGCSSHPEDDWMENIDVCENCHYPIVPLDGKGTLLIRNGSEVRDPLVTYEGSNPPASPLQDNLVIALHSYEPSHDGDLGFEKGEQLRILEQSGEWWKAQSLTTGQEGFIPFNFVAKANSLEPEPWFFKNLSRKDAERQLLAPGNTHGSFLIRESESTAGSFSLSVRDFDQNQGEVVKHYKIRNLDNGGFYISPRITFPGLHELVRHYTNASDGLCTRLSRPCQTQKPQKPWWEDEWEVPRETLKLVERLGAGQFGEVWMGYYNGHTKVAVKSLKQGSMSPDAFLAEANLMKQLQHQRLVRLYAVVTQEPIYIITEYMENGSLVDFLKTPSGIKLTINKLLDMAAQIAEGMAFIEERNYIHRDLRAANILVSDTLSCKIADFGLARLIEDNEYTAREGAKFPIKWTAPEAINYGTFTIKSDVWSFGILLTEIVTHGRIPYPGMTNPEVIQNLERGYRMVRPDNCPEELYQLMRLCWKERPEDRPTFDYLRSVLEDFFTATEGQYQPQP
# T6 sequence (P15498 whole entry, the tested form may be a part): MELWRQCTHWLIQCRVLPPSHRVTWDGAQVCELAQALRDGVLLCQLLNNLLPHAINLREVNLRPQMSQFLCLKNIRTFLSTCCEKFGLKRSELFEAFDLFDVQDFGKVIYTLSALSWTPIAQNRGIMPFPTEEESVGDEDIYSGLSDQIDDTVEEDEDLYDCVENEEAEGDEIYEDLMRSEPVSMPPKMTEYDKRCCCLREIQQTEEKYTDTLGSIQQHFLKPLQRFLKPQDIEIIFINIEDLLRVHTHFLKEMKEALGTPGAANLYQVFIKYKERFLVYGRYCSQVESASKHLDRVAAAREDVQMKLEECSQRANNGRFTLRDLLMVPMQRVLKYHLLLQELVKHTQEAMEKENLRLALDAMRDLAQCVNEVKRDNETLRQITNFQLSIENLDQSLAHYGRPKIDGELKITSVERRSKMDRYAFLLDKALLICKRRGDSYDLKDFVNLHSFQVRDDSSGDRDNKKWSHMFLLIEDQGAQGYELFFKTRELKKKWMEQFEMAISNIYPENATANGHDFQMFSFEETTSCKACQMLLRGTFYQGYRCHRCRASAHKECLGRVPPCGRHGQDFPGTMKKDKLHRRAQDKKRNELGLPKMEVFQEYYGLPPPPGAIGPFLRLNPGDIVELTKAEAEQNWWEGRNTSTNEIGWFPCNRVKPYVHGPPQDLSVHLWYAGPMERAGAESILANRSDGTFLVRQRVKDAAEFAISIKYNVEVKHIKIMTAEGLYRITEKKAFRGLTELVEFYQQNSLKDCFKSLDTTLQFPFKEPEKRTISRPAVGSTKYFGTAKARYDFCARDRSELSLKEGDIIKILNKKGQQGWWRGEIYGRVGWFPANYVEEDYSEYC
# T7 sequence (Q8N5H7 whole entry, the tested form may be a part): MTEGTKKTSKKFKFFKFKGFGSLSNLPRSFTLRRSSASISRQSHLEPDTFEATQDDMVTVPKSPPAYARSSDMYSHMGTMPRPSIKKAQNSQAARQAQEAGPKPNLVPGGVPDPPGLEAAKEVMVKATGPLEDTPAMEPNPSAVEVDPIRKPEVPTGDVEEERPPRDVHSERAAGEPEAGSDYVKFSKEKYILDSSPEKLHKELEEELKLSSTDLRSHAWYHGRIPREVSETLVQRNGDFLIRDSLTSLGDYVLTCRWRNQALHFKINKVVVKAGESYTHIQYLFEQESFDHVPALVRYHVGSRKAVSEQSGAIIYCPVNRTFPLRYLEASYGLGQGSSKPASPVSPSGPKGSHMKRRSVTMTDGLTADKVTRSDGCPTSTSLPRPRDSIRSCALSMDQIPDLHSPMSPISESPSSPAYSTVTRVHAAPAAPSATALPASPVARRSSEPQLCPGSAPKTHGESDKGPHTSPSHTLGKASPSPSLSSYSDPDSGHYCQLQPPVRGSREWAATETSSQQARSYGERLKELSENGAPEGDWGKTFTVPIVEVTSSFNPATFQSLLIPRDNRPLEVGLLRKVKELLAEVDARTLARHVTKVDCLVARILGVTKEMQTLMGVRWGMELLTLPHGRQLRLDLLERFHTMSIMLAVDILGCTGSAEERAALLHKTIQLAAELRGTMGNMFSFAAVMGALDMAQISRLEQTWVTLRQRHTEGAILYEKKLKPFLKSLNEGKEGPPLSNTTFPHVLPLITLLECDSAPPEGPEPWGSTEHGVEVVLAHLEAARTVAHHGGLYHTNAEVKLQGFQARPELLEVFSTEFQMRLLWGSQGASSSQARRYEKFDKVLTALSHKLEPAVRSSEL
# T2 sequence (Q8IZW8 19-715): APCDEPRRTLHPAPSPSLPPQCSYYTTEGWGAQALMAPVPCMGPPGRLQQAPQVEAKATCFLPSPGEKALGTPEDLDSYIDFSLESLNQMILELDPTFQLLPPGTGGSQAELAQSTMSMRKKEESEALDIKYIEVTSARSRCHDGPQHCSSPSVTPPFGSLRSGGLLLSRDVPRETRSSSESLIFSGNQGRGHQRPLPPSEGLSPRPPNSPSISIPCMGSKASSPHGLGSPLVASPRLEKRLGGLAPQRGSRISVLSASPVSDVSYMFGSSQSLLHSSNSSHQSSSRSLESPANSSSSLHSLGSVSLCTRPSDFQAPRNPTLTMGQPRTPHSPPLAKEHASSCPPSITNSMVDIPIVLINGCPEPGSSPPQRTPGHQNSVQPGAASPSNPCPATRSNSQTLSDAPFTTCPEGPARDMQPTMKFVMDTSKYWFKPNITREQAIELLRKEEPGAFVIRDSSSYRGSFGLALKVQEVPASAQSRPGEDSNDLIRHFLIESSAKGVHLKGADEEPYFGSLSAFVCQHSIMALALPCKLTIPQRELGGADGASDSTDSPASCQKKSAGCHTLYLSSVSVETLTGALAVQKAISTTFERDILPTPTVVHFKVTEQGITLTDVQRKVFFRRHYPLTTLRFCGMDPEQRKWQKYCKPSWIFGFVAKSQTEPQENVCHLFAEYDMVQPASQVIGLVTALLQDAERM
# Sequence of PLCG2-NC tandem SH2 domains (P16885 532-735 limits assumed): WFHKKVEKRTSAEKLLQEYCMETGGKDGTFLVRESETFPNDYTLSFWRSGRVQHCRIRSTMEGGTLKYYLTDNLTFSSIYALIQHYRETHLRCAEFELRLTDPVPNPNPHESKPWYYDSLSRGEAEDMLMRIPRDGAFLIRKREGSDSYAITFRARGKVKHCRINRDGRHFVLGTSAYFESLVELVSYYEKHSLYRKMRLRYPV
# Sequence of STAP1 SH2 domain (Q9ULZ2 177-280 limits assumed): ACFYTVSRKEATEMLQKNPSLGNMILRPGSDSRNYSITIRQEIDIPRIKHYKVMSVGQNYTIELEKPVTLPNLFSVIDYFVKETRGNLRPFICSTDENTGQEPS
# T4 sequence (O75815 whole entry, the tested form may be a part): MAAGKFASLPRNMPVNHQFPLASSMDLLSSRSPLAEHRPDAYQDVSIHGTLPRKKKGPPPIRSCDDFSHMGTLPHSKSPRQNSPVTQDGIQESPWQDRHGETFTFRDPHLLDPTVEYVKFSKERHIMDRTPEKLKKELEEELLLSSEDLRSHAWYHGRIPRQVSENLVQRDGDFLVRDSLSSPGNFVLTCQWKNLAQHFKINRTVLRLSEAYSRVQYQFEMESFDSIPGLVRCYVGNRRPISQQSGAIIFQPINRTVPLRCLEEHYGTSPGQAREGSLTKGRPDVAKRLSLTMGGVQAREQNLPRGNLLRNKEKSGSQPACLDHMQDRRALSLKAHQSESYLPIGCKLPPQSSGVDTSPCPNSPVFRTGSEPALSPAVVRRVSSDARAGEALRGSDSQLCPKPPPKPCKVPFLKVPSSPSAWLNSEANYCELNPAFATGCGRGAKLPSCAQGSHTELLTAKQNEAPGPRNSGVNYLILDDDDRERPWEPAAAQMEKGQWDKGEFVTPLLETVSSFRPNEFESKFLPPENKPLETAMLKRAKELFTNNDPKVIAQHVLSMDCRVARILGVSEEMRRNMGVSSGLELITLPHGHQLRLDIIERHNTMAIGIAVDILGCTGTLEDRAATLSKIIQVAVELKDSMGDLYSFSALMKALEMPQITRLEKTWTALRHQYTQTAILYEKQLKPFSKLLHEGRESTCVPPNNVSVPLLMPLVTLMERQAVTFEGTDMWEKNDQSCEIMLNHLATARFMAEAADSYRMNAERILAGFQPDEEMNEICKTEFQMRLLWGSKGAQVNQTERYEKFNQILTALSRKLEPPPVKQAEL
# T3 sequence (P46108 whole entry, the tested form may be a part): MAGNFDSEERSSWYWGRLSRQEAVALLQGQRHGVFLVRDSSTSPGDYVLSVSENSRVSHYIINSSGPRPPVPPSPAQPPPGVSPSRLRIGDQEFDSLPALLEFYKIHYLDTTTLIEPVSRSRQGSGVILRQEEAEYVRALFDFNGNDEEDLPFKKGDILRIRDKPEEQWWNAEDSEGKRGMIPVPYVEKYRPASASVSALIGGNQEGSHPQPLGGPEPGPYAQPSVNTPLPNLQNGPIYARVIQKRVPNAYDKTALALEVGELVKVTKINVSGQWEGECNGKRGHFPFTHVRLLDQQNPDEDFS
# Sequence of VAV2 SH2 domain (P52735 673-767 limits assumed): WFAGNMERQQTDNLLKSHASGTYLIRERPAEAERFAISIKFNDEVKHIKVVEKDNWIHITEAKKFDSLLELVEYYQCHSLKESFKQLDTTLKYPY
structure (smiles),measurement,setting,value
CC(C)C[C@H](NC(=O)[C@H](CC(N)=O)NC(=O)[C@@H](N)CC(=O)O)C(=O)N[C@@H](Cc1ccc(O)cc1)C(=O)N[C@@H](Cc1ccc(OP(=O)(O)O)cc1)C(=O)N[C@@H](Cc1c[nH]c2ccccc12)C(=O)N[C@@H](CC(=O)O)C(=O)N[C@@H](CCC(N)=O)C(=O)N[C@@H](CC(=O)O)C(=O)N1CCC[C@H]1C(=O)N1CCC[C@H]1C(=O)N[C@@H](CCC(=O)O)C(=O)N[C@@H](CC(=O)O)C(=O)O [ErbB2 1222 13-mer] (HELM PEPTIDE1{D.N.L.Y.[O=C([C@H](Cc1ccc(OP(=O)(O)O)cc1)N[*:1])[*:2]].W.D.Q.D.P.P.E.D}$$$$V2.0),Kd,[1],6400 nM
CC(C)C[C@H](NC(=O)[C@H](Cc1ccc(OP(=O)(O)O)cc1)NC(=O)[C@H](CCC(=O)O)NC(=O)[C@H](CCC(=O)O)NC(=O)[C@H](C)NC(=O)[C@@H](N)CC(=O)O)C(=O)N[C@H](C(=O)N1CCC[C@H]1C(=O)N[C@@H](CCC(N)=O)C(=O)N[C@@H](CCC(N)=O)C(=O)NCC(=O)N[C@@H](Cc1ccccc1)C(=O)N[C@@H](CC(=O)O)C(=O)O)C(C)C [ErbB2 1023 13-mer] (HELM PEPTIDE1{D.A.E.E.[O=C([C@H](Cc1ccc(OP(=O)(O)O)cc1)N[*:1])[*:2]].L.V.P.Q.Q.G.F.D}$$$$V2.0),Kd,VAV2 SH2 domain,9900 nM
CC[C@H](C)[C@H](NC(=O)[C@H](CC(N)=O)NC(=O)[C@H](CC(N)=O)NC(=O)[C@H](CCCCN)NC(=O)[C@H](CC(C)C)NC(=O)[C@H](Cc1ccc(OP(=O)(O)O)cc1)NC(=O)[C@H](CCC(=O)O)NC(=O)[C@H](C)NC(=O)[C@H](CCCCN)NC(=O)CNC(=O)[C@H](CC(C)C)NC(=O)[C@@H](NC(=O)[C@H](CC(N)=O)NC(=O)[C@H](C)NC(=O)[C@@H](N)Cc1ccccc1)[C@@H](C)O)C(=O)N[C@@H](CC(C)C)C(=O)N[C@@H](CO)C(=O)N[C@@H](CC(=O)O)C(=O)O [ErbB4 pY1221 (18-mer)] (HELM PEPTIDE1{F.A.N.T.L.G.K.A.E.[O=C([C@H](Cc1ccc(OP(=O)(O)O)cc1)N[*:1])[*:2]].L.K.N.N.I.L.S.D}$$$$V2.0),Kd,SH2 and PTB domains [2],230 nM
same,Kd,SH2 and PTB domains [3],320 nM
same,Kd,SH2 and PTB domains [4],64540 nM
CC(C)C[C@H](NC(=O)[C@@H]1CCCN1C(=O)[C@H](C)NC(=O)[C@@H](NC(=O)[C@H](Cc1ccc(OP(=O)(O)O)cc1)NC(=O)CNC(=O)[C@H](CC(=O)O)NC(=O)[C@@H](NC(=O)[C@@H](N)CCC(=O)O)[C@@H](C)O)C(C)C)C(=O)N[C@H](C(=O)N[C@@H](CS)C(=O)N[C@@H](CO)C(=O)N[C@@H](CC(=O)O)C(=O)O)[C@@H](C)O [ErbB2 pY1127],Kd,SH2 and PTB domains [5],730 nM
same,Kd,SH2 and PTB domains [6]; [10],800 nM
same,Kd,"SH2 and PTB domains [6]; PM assay replicate # 39337, array fabrication # 39329",1610 nM
same,Kd,SH2 and PTB domains [6]; [11],130 nM
same,Kd,SH2 and PTB domains [7]; PM assay replicate # 39336,190 nM
same,Kd,SH2 and PTB domains [7]; PM assay replicate # 39337,90 nM
same,Kd,SH2 and PTB domains [8]; PM assay replicate # 39336,1520 nM
same,Kd,SH2 and PTB domains [8]; PM assay replicate # 39337,5510 nM
CSCC[C@H](NC(=O)[C@H](Cc1ccc(OP(=O)(O)O)cc1)NC(=O)[C@H](CCC(=O)O)NC(=O)[C@H](Cc1ccc(O)cc1)NC(=O)CNC(=O)[C@@H](N)CC(C)C)C(=O)N[C@@H](CC(=O)O)C(=O)N[C@H](C(=O)NCC(=O)N[C@@H](CO)C(=O)N[C@@H](CC(=O)O)C(=O)N[C@@H](CC(C)C)C(=O)N[C@@H](CC(=O)O)C(=O)O)C(C)C [ErbB3 1224 13-mer] (HELM PEPTIDE1{L.G.Y.E.[O=C([C@H](Cc1ccc(OP(=O)(O)O)cc1)N[*:1])[*:2]].M.D.V.G.S.D.L.D}$$$$V2.0),Kd,SH2D1B SH2 domain,1470 nM
CC(C)C[C@H](NC(=O)[C@@H]1CCCN1)C(=O)N[C@@H](CCC(N)=O)C(=O)N[C@@H](CCCNC(=N)N)C(=O)N[C@@H](Cc1ccc(OP(=O)(O)O)cc1)C(=O)N[C@@H](CO)C(=O)N[C@@H](CCC(=O)O)C(=O)N[C@@H](CC(=O)O)C(=O)N1CCC[C@H]1C(=O)N[C@H](C(=O)N[C@H](C(=O)N1CCC[C@H]1C(=O)N[C@@H](CC(=O)O)C(=O)O)C(C)C)[C@@H](C)O [ErbB2 pY1112] (HELM PEPTIDE1{P.L.Q.R.[O=C([C@H](Cc1ccc(OP(=O)(O)O)cc1)N[*:1])[*:2]].S.E.D.P.T.V.P.D}$$$$V2.0),Kd,"SH2 and PTB domains [9]; PM assay replicate # 39331, array fabrication # 39329",2030 nM
same,Kd,SH2 and PTB domains [9]; [10],5390 nM
same,Kd,SH2 and PTB domains [9]; [11],490 nM
CC(C)C[C@H](NC(=O)[C@H](Cc1ccc(OP(=O)(O)O)cc1)NC(=O)[C@H](CC(C)C)NC(=O)[C@@H]1CCCN1C(=O)[C@H](CCC(=O)O)NC(=O)[C@H](CC(N)=O)NC(=O)[C@@H](NC(=O)[C@H](Cc1ccc(O)cc1)NC(=O)[C@H](CCC(=O)O)NC(=O)[C@H](CC(=O)O)NC(=O)[C@@H](N)CCC(=O)O)C(C)C)C(=O)N[C@@H](CC(N)=O)C(=O)N[C@H](C(=O)N[C@@H](Cc1ccccc1)C(=O)N[C@@H](C)C(=O)N[C@@H](CC(N)=O)C(=O)N[C@H](C(=O)N[C@@H](CC(=O)O)C(=O)O)[C@@H](C)O)[C@@H](C)O [ErbB4 1208 18-mer] (HELM PEPTIDE1{E.D.E.Y.V.N.E.P.L.[O=C([C@H](Cc1ccc(OP(=O)(O)O)cc1)N[*:1])[*:2]].L.N.T.F.A.N.T.D}$$$$V2.0),Kd,STAP1 SH2 domain,10100 nM
